Results reported in publication PMC7321108, “1-Hydroxyanthraquinones Containing Aryl Substituents as Potent and Selective Anticancer Agents” (Molecules, 2020).

Key:
[1] = test system: DU-145 cells; assay: Cell cycle analysis by flow cytometry (Hoechst 33342), DU-145; assay type: cell-based, human; conditions: DU-145, treated at GI50 concentration, 24 h
Description: We have carried out flow cytometric study of compounds 13, 16 and the isomeric compound 25 (Table 4, Figure 4G,H). Concentrations of 16 and 25 were taken as 5.4 and 14.5 μM, respectively, as per cytotoxic studies (Table 1). After examining the data for 13 (Figure 4G, Table 4), a good number of cells are arrested in Sub-G1, G0/G1 and S phase. Biosynthetic activity is very high during Sub-G1 phase; this is probably achieved by enhancing of apoptosis. The isomeric molecule 25 arrest G0/G1 and S phases, i.e., affecting the DNA synthesis/replication mechanism. Similarly, for 25 a different pattern is observed, i.e., variations at S and G2/M phases were observed, in comparison to the control. […] Some difference in the mechanism of operation of 13 and 25 has been observed during the progression of cell cycle like: Sub-G1 phase was highly disturbed by 13 and S and G0/G1 phases were highly disturbed by 25.
For cell cycle analysis cells were seeded in 6-well plates (30,000 per plate) and incubate for adhesion for 24 h. […] Cells were washed with PBS twice, harvested, pelleted and resuspended in 0.5 mL of PBS. For staining the Hoechst 33342 Ready Flow Reagent (Invitrogen) was used according to the instruction. CytoFLEX flow cytometer (Beckman Coulter) was used for analysis. The results are presented as a percentage of cell population standing in different stages of the cell cycle.

[2] = test system: LNCAP prostate cancer cells; assay: MTT cytotoxicity assay, LNCAP; assay type: cell-based, human; conditions: Homo sapiens, LNCaP, 72 h, 72 h incubation, mean ± SEM of three experiments, read-out: Cytotoxicity (GI50) against LNCAP
Method in brief: (§1)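 Cells grown in RPMI-1640 with 10% embryonic calf serum at 37 °C, 5% CO2, exposed to DMSO-dissolved compounds for 72 h, triplicate wells. Viability by MTT (1%, 4 h), DMSO solubilisation, OD at 450 nm; GI50 is concentration halving OD versus untreated control, mean ± SEM of three experiments.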

[3] = test system: T98G glioblastoma cells; assay: MTT cytotoxicity assay, T98G; assay type: cell-based; conditions: Homo sapiens, 72 h incubation, mean ± SEM of three experiments, read-out: Cytotoxicity (GI50) against T98G
Method in brief: as §1

[4] = test system: DU-145 cells; assay: DNA synthesis investigation (BrdU/PI flow cytometry), DU-145; assay type: cell-based, human; conditions: DU-145, treated at GI50 concentration, 24 h, BrdU 30 min
Description: (§2) Cell cycle analysis was performed by Flow Cytometry using BrdU and PI staining [63]. For this experiment cells were seeded in 6-well plates (30,000 per plate) and incubate for adhesion for 24 h. […] For the next step the BrdU stock was added at a final concentration of 30 µM and cells were incubated for 30 min. Cells were washed with PBS, harvested using trypsine and resuspended at 0.3 mL of PBS. Permeabilization of cell membrane was performed as follows: 0.7 mL of ice-cold 100% EtOH was added into each sample, mixed gently and incubate at 4 °C for 1 h. Cells were pelleted and supernatant was removed completely. Then 0.5 mL of 2 N HCl/0.5% Triton X-100 was added and samples were incubated 30 min at room temperature. Cells were pelleted again, supernatant was removed. The pellet was resuspended in 0.5 mL of 0.1 M sodium tetraborate for 2 min and cells were pelleted again, washed with 150 µL of PBS/1% BSA and resuspended in 50 µM 0.5% Tween 20/1% BSA/PBS. […] After that the samples were resuspended in 0.5 mL of PBS containing 10 mg/mL RNAse A and 20 mg/mL PI. Samples were incubated at room temperature for 30 min and analyzed immediately or store at 4 °C. CytoFLEX flow cytometer (Beckman Coulter) was used for analysis. The results are presented as a percentage of cell population standing in DNA synthesis process.

[5] = test system: SNB-19 cells; assay: DNA synthesis investigation (BrdU/PI flow cytometry), SNB-19; assay type: cell-based, human; conditions: SNB-19, treated at GI50 concentration, 24 h, BrdU 30 min
Description: as §2

Row | Compound | Population (% Cell Distribution) G0/G1 [1] | Population (% Cell Distribution) G2/M [1] | Population (% Cell Distribution) S [1] | Population (% Cell Distribution) Sub-G1 [1] | Population (% Cell Distribution) Super-G2 [1] | GI50 [2] | GI50 [3] | Population (% Cell Distribution) DNA Synthesis [4] | Population (% Cell Distribution) DNA Synthesis [5]
1 | COc1cccc(-c2ccc(O)c3c2C(=O)c2ccccc2C3=O)c1OC [Compound 16, 1-(2,3-Dimethoxyphenyl)-4-hydroxyanthracene-9,10-dione] | 44.3% | 7.3% | 30.7% | 15.7% | 2.0% | > 100 µM | 25.1 ± 1.04 µM | 27.22% | 28.67%
2 | O=C1c2ccccc2C(=O)c2c(-c3ccccc3)ccc(O)c21 [Compound 13, 1-Hydroxy-4-phenylanthracene-9,10-dione] | 28.7% | 6.3% | 28.7% | 34.6% | 1.6% | 24 ± 1.47 µM | 14.1 ± 0.65 µM | 6.83% | 28.63%
